Measured values: patent US20250064941A1, “SIGLEC LIGANDS, CONJUGATES, AND METHODS OF USE THEREOF” (Osprey Biopharmaceuticals, Inc., priority 2023, published 2025)
pKd: −log10 of the molar value.

Assays:
[1] = target: T1, mouse Siglec-2-Fc-Avi (CD22) (Mus musculus, UniProt P35329); assay: SPR binding affinity to mouse CD22; conditions: steady-state analysis
T1 construct: made in house
T1 sequence (P35329 22-708 limits assumed): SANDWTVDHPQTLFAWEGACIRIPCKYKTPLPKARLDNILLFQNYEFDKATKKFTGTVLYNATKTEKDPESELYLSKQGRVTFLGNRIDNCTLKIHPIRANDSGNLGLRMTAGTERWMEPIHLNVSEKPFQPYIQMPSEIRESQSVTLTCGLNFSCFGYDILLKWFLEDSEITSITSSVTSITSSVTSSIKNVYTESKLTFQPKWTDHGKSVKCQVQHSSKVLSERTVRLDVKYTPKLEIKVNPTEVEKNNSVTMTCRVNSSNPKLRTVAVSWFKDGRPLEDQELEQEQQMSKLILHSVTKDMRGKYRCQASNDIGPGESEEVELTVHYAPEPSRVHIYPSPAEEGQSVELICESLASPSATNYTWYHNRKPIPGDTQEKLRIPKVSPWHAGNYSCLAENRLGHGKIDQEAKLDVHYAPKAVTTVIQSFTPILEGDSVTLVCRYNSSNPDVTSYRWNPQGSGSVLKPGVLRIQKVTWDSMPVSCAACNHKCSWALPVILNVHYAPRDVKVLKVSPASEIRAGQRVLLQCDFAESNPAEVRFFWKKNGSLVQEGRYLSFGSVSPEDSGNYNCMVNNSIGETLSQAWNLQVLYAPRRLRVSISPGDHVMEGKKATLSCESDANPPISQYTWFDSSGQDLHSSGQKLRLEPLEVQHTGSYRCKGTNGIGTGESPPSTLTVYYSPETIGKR
Method in brief: (§1)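 Using a Biacore 8K, compounds were tested against biotinylated CD22 captured after sialidase treatment. The running buffer held 1% DMSO, corrected with a 0.5–2% DMSO series. Affinity was derived by steady-state analysis.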

[2] = target: T2, human Siglec-2/CD22 protein (Homo sapiens, UniProt P20273); assay: SPR binding affinity to human CD22; conditions: steady-state analysis
T2 construct: purchased Acro Biosystems SI2-H82E3
T2 sequence (P20273 20-847): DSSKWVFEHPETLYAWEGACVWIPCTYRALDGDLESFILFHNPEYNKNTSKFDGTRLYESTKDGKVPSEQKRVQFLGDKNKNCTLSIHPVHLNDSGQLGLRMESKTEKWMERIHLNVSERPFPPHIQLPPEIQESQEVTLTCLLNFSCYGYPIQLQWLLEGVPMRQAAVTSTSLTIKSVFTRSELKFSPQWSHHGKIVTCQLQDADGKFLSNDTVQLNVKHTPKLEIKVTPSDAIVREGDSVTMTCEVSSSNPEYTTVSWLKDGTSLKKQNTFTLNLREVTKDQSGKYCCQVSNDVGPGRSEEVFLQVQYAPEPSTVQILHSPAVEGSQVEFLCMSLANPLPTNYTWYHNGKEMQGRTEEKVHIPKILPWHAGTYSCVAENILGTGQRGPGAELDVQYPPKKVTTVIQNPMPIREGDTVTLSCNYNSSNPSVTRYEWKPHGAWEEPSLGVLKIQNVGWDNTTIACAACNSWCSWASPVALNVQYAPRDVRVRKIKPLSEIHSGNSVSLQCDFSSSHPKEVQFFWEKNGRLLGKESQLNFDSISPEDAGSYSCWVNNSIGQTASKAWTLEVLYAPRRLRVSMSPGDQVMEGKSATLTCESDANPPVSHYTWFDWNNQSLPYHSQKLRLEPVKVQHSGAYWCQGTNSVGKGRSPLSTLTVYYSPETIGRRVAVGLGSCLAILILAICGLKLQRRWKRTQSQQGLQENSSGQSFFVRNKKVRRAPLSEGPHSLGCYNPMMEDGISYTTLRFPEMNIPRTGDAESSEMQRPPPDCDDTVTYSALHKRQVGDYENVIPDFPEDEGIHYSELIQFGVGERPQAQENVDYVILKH
Method in brief: as §1

cynomolgus Siglec-2/CD22 = cynomolgus Siglec-2/CD22 (Macaca fascicularis, UniProt A0A2K5WCZ6); assay: biochemical; format: binding; conditions: SPR, steady-state analysis; read-out: Affinity cyno CD22
Method in brief: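 SPR with desialylated (SialoExo, 4 h, 37° C.) cynomolgus CD22 amine-coupled to a CM5 chip. Running buffer 10 mM HEPES, 150 mM NaCl, 0.05% Tween-20, pH 7.5, 1% DMSO, with solvent correction; 120 s dissociation. Affinities from steady-state analysis.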

Chain of cynomolgus Siglec-2/CD22 (A0A2K5WCZ6 entry or part of it): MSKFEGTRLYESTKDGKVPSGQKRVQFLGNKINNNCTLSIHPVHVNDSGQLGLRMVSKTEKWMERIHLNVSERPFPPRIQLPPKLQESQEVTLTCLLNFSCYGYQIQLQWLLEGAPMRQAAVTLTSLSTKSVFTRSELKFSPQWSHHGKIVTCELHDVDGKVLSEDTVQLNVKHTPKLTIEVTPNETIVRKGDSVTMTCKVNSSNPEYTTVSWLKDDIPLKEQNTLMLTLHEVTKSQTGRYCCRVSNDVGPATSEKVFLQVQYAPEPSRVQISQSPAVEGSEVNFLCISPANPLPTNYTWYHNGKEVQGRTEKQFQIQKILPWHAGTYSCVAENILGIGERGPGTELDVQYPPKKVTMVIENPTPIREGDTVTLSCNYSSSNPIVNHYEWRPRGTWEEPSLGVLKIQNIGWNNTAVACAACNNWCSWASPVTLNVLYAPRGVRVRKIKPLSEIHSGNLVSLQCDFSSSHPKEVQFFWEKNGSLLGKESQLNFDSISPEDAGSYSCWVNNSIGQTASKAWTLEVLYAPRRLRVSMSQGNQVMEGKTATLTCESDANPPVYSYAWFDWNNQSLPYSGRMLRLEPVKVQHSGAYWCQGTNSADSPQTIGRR

Row | Compound | pKd [1] | pKd [2] | pKd (cynomolgus Siglec-2/CD22)
1 | C#CCOCCOCCO[C@]1(C(=O)O)C[C@H](O)[C@@H](NC(=O)NC)[C@H]([C@H](O)[C@H](O)CNC(=O)Cc2ccc(-c3ccc(O)cc3)cc2)O1 [Compound 70, (2R,4S,5R,6R)-6-((1R,2R)-1,2-dihydroxy-3-(2-(4′-hydroxy-[1,1′-biphenyl]-4-yl)acetamido)propyl)-4-hydroxy-5-(3-methylureido)-2-(2-(2-(prop-2-yn-1-yloxy)ethoxy)ethoxy)tetrahydro-2H-pyran-2-carboxylic acid] | 5.00 to 6.00 | > 6.00 | 5.00 to 6.00
2 | C#CCOCCOCCO[C@]1(C(=O)O)C[C@H](O)[C@@H](NC(=O)C(C)(C)O)[C@H]([C@H](O)[C@H](O)CNC(=O)Cc2ccc(-c3ccc(O)cc3)cc2)O1 [Compound 71, (2R,4S,5R,6R)-6-((1R,2R)-1,2-dihydroxy-3-(2-(4′-hydroxy-[1,1′-biphenyl]-4-yl)acetamido)propyl)-4-hydroxy-5-(2-hydroxy-2-methylpropanamido)-2-(2-(2-(prop-2-yn-1-yloxy)ethoxy)ethoxy)tetrahydro-2H-pyran-2-carboxylic acid] | < 5.00 | 5.00 to 6.00 | 5.00 to 6.00
3 | C#CCCOc1ccc(CO[C@]2(C(=O)O)C[C@H](O)[C@@H](NC(=O)CO)[C@H]([C@H](O)[C@H](O)CNC(=O)Cc3ccc(-c4ccc(O)cc4)cc3)O2)cc1O [Compound 73, (2R,4S,5R,6R)-2-((4-(but-3-yn-1-yloxy)-3-hydroxybenzyl)oxy)-6-((1R,2R)-1,2-dihydroxy-3-(2-(4′-hydroxy-[1,1′-biphenyl]-4-yl)acetamido)propyl)-4-hydroxy-5-(2-hydroxyacetamido)tetrahydro-2H-pyran-2-carboxylic acid] | > 6.00 | > 6.00 | > 6.00
4 | C#CCOCCOCCO[C@]1(C(=O)O)C[C@H](O)[C@@H](NC(=O)CO)[C@H]([C@H](O)[C@H](O)CNC(=O)Cc2ccc(-c3ccc(=O)[nH]c3)cc2)O1 [Compound 74, (2R,4S,5R,6R)-6-((1R,2R)-1,2-dihydroxy-3-(2-(4-(6-oxo-1,6-dihydropyridin-3-yl)phenyl)acetamido)propyl)-4-hydroxy-5-(2-hydroxyacetamido)-2-(2-(2-(prop-2-yn-1-yloxy)ethoxy)ethoxy)tetrahydro-2H-pyran-2-carboxylic acid] | 5.00 to 6.00 | 5.00 to 6.00 | 5.00 to 6.00
5 | C#CCOCCOCCO[C@]1(C(=O)O)C[C@H](O)[C@@H](NC(=O)CO)[C@H]([C@H](O)[C@H](O)CNC(=O)Cc2ccc(-c3cc[nH]c(=O)c3)cc2)O1 [Compound 75, (2R,4S,5R,6R)-6-((1R,2R)-1,2-dihydroxy-3-(2-(4-(2-oxo-1,2-dihydropyridin-4-yl)phenyl)acetamido)propyl)-4-hydroxy-5-(2-hydroxyacetamido)-2-(2-(2-(prop-2-yn-1-yloxy)ethoxy)ethoxy)tetrahydro-2H-pyran-2-carboxylic acid] | < 5.00 | < 5.00 | < 5.00
6 | C#CCOCCOCCO[C@]1(C(=O)O)C[C@H](O)[C@@H](NC(=O)C(F)F)[C@H]([C@H](O)[C@H](O)CNC(=O)Cc2ccc(-c3ccc(O)cc3)cc2)O1 [Compound 76, (2R,4S,5R,6R)-5-(2,2-difluoroacetamido)-6-((1R,2R)-1,2-dihydroxy-3-(2-(4′-hydroxy-[1,1′-biphenyl]-4-yl)acetamido)propyl)-4-hydroxy-2-(2-(2-(prop-2-yn-1-yloxy)ethoxy)ethoxy)tetrahydro-2H-pyran-2-carboxylic acid] | 5.00 to 6.00 | > 6.00 | 5.00 to 6.00
7 | C#CCCOc1ccc(CO[C@]2(C(=O)O)C[C@H](O)[C@@H](NC(=O)CO)[C@H]([C@H](O)[C@H](O)CNC(=O)Cc3ccc(-c4ccc(O)cc4)cc3)O2)cc1 [Compound 77, (2R,4S,5R,6R)-2-((4-(but-3-yn-1-yloxy)benzyl)oxy)-6-((1R,2R)-1,2-dihydroxy-3-(2-(4′-hydroxy-[1,1′-biphenyl]-4-yl)acetamido)propyl)-4-hydroxy-5-(2-hydroxyacetamido)tetrahydro-2H-pyran-2-carboxylic acid] | > 6.00 | > 6.00 | > 6.00
8 | C#CCOCCOCCO[C@]1(C(=O)O)C[C@H](O)[C@@H](NC(=O)CO)[C@H]([C@H](O)[C@H](O)CNC(=O)Cc2ccc(-c3cccc(O)c3)cc2)O1 [Compound 78, (2R,4S,5R,6R)-6-((1R,2R)-1,2-dihydroxy-3-(2-(3′-hydroxy-[1,1′-biphenyl]-4-yl)acetamido)propyl)-4-hydroxy-5-(2-hydroxyacetamido)-2-(2-(2-(prop-2-yn-1-yloxy)ethoxy)ethoxy)tetrahydro-2H-pyran-2-carboxylic acid] | 5.00 to 6.00 | > 6.00 | 5.00 to 6.00
9 | C#CCOCCOCCO[C@]1(C(=O)O)C[C@H](O)[C@@H](NC(=O)CO)[C@H]([C@H](O)[C@H](O)CNC(=O)Cc2ccc(-c3ccccc3)nc2)O1 [Compound 79, (2R,4S,5R,6R)-6-((1R,2R)-1,2-dihydroxy-3-(2-(6-phenylpyridin-3-yl)acetamido)propyl)-4-hydroxy-5-(2-hydroxyacetamido)-2-(2-(2-(prop-2-yn-1-yloxy)ethoxy)ethoxy)tetrahydro-2H-pyran-2-carboxylic acid] | < 5.00 | 5.00 to 6.00 | < 5.00
10 | C#CCOCCOCCO[C@]1(C(=O)O)C[C@H](O)[C@@H](NC(=O)CO)[C@H]([C@H](O)[C@H](O)CNC(=O)Cc2ccc(-c3cccc(C(=O)NC)c3)cc2)O1 [Compound 80, (2R,4S,5R,6R)-6-((1R,2R)-1,2-dihydroxy-3-(2-(3′-(methylcarbamoyl)-[1,1′-biphenyl]-4-yl)acetamido)propyl)-4-hydroxy-5-(2-hydroxyacetamido)-2-(2-(2-(prop-2-yn-1-yloxy)ethoxy)ethoxy)tetrahydro-2H-pyran-2-carboxylic acid] | 5.00 to 6.00 | 5.00 to 6.00 | 5.00 to 6.00
11 | C#CCOCCOCCO[C@]1(C(=O)O)C[C@H](O)[C@@H](NC(=O)CO)[C@H]([C@H](O)[C@H](O)CNC(=O)Cc2ccc(-c3cccc(C#N)c3)cc2)O1 [Compound 81, (2R,4S,5R,6R)-6-((1R,2R)-3-(2-(3′-cyano-[1,1′-biphenyl]-4-yl)acetamido)-1,2-dihydroxypropyl)-4-hydroxy-5-(2-hydroxyacetamido)-2-(2-(2-(prop-2-yn-1-yloxy)ethoxy)ethoxy)tetrahydro-2H-pyran-2-carboxylic acid] | < 5.00 | 5.00 to 6.00 | 5.00 to 6.00
12 | C#CCOCCOCCO[C@]1(C(=O)O)C[C@H](O)[C@@H](NC(=O)CO)[C@H]([C@H](O)[C@H](O)CNC(=O)Cc2ccc(-c3cccnc3)cc2)O1 [Compound 82, (2R,4S,5R,6R)-6-((1R,2R)-1,2-dihydroxy-3-(2-(4-(pyridin-3-yl)phenyl)acetamido)propyl)-4-hydroxy-5-(2-hydroxyacetamido)-2-(2-(2-(prop-2-yn-1-yloxy)ethoxy)ethoxy)tetrahydro-2H-pyran-2-carboxylic acid] | < 5.00 | 5.00 to 6.00 | < 5.00
